Each block holds one molecule with its values, some of them ahead of it.
Columns and labels:
[1] = target: SdhA+SdhE (Escherichia coli, UniProt P0AC41); test: Optical difference spectroscopy, dicarboxylate binding to SdhA in the presence of SdhE; details: read-out: Kd^malonate
Experimental: (§1) If this mechanistic proposal for covalent flavinylation is correct, we would anticipate that the FrdA-SdhE assembly intermediate would bind with reasonable affinity to biologically relevant dicarboxylates. […] Thus, the shifted architecture of SdhE-bound FrdA maintains dicarboxylate binding, supporting our mechanism.
(§2) Studies were performed using a HP8453 UV/Vis spectrophotometer (Agilent, Santa Clara, CA). […] The isolated flavoproteins were added to a cuvette and titrated by the sequential addition of ligand solutions. The wavelength giving the highest amplitude change for each ligand was selected from the difference spectra for the analysis. The dissociation constant (Kd) values were obtained by the analysis of the changes in absorbance vs total ligand concentration. The Kd was determined according Eq. 1:1 ΔA=ΔAmaxET+LT+Kd-ET+LT+Kd^2-4ETLT/2ET where ET is a total protein concentration, LT is a total ligand concentration, ΔA and ΔAmax are the absorbance changes at a given and saturation ligand concentration. The protein concentration used for FrdA, SdhA, and quinol:fumarate reductase (QFR) were in a range of 7 to 9 µM. […] The concentration of the isolated flavoprotein was determined in 0.5% SDS using the FAD extinction coefficient ε^445 = […].

[2] = target: T1, FrdA+SdhE (Escherichia coli, UniProt P00363); test: Optical difference spectroscopy, dicarboxylate binding to FrdA in the presence of SdhE
T1 construct: made in house; host or cells: FrdA: E. coli RP-2; SdhE for this assay: not described
Experimental: as §1, §2

[3] = target: E. coli SdhA subunit (Escherichia coli, UniProt P0AC41); test: Optical difference spectroscopy, ligand binding to isolated SdhA subunit; details: read-out: Kd^malonate
Experimental: (§3) To interrogate dicarboxylate orientation in solution, we focused on oxaloacetate. When oxaloacetate is correctly oriented in the active site, it induces a characteristic spectrum (charge transfer band) attributed to π–π interactions between the oxygen of oxaloacetate and the isoalloxazine ring of FAD.
(§4) Studies were performed using a HP8453 UV/Vis spectrophotometer (Agilent, Santa Clara, CA). Binding experiments were carried out in 50 mM Bis-Tris-Propane (pH 8.0) at 25 °C. The isolated flavoproteins were added to a cuvette and titrated by the sequential addition of ligand solutions. The wavelength giving the highest amplitude change for each ligand was selected from the difference spectra for the analysis. The dissociation constant (Kd) values were obtained by the analysis of the changes in absorbance vs total ligand concentration. The Kd was determined according Eq. 1:1 ΔA=ΔAmaxET+LT+Kd-ET+LT+Kd^2-4ETLT/2ET where ET is a total protein concentration, LT is a total ligand concentration, ΔA and ΔAmax are the absorbance changes at a given and saturation ligand concentration. The protein concentration used for FrdA, SdhA, and quinol:fumarate reductase (QFR) were in a range of 7 to 9 µM. […]

[4] = target: T2, E. coli FrdA subunit (Escherichia coli, UniProt P00363); test: biochemical; type: binding
T2 construct: made in house; host or cells: E. coli RP-2 (RP437ΔfrdΔsdh)
Experimental: as §3, §4

[5] = target: T3, Escherichia coli succinate:quinone oxidoreductase flavoprotein subunit SdhA (isolated subunit) (E. coli, UniProt P0AC41 1-588); test: cell-based or functional assay
T3 sequence (looked up): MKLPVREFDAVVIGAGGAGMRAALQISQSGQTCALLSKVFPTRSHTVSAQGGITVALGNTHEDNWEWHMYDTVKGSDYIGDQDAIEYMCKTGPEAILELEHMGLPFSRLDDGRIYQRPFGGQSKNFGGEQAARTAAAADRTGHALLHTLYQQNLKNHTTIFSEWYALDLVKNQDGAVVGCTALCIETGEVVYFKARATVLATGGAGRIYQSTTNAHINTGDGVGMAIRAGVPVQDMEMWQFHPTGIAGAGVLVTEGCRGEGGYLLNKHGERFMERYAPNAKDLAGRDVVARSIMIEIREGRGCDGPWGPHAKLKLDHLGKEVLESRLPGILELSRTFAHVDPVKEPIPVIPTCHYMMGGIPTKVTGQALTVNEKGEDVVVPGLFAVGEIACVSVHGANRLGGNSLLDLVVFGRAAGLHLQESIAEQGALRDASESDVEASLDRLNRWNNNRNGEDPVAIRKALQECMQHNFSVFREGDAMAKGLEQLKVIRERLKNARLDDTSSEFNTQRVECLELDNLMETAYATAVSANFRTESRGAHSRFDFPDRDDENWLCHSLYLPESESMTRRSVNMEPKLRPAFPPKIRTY

[6] = target: T4, Escherichia coli quinol:fumarate reductase flavoprotein subunit FrdA (isolated subunit) (E. coli, UniProt P00363 1-602, covalent FAD on H44 (8α-N(3)-histidyl linkage)); test: cell-based or functional assay
T4 sequence (looked up): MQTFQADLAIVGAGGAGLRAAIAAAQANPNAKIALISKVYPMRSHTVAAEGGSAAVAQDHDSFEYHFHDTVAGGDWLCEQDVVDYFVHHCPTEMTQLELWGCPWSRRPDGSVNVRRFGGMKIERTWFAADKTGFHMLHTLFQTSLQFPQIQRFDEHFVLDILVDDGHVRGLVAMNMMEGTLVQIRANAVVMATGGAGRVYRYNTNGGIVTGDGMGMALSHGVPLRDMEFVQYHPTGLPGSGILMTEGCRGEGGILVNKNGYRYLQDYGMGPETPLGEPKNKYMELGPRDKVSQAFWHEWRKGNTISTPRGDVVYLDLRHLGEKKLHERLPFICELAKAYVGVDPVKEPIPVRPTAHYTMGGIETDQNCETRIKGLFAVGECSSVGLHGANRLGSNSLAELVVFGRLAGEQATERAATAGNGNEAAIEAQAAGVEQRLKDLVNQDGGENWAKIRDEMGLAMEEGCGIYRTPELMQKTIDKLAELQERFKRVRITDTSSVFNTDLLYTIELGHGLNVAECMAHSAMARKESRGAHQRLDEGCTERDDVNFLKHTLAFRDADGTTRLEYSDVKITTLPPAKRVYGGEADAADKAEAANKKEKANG

[7] = target: T4, Escherichia coli quinol:fumarate …; test: optical difference spectroscopy (FAD absorbance titration); isolated flavoprotein (7 to 9 µM) in the cuvette titrated with SdhE; 50 mM Bis-Tris-Propane pH 8.0, 25 °C; 387–458 nm; fit of absorbance change against total ligand concentration; details: both partners purified

Molecule: O=C(O)CC(=O)O [malonate]
- Kd [1]: 60 ± 5 µM
- increase of Kd^malonate in the presence of SdhE ([2]; presence vs absence of SdhE, stated for both FrdA and SdhA subunits): 5- to 7 fold
- Kd ([2]; read-out: Kd^malonate): 180 ± 20 µM
- Kd [3]: 11 ± 1 µM
- Kd [4]: 26 ± 3 µM

- inhibition by SdhE of the succinate:DCIP reductase reaction of isolated SdhA, pH 8.0, 30 °C; IC50^SdhE [5]: 1.5 µM
- inhibition by SdhE of the succinate:DCIP reductase reaction of isolated FrdA (0.45 µM), pH 8.0, 30 °C; IC50^SdhE [6]: 1.2 µM
- Kd [7]: 0.7 ± 0.1 µM
B1: Escherichia coli SdhE assembly factor (natural protein, E. coli)
chain: MDINNKARIHWACRRGMRELDISIMPFFEHEYDSLSDDEKRIFIRLLECDDPDLFNWLMNHGKPADAELEMMVRLIQTRNRERGPVAI
notes: SdhE, FAD assembly factor of E. coli Complex II, as used in optical titrations and kinetics; construct not described

— publication PMC5773532, “Crystal structure of an assembly intermediate of respiratory Complex II” (Nature Communications, 2018)
